Results taken from US7256207B2, “Inhibitors of cathepsin S” (IRM LLC, priority 2003, dated 2007).
pKi: −log10 of the molar value.

Columns and labels:
Type in all cases: biochemical
[1] = biological target: Cathepsin S (Homo sapiens, UniProt P25774); test: Cathepsin S inhibition assay, fluorogenic peptide substrate; details: Cathepsin S inhibition constant; pH5.5, 20 minutes preincubation at room temperature; read-out: Ki Cat. S
Procedure: (§1) The optimal substrate for cathepsin S, acetyl-histidine-proline-valine-lysine-amino carbamoyl coumarin, was identified from screening a combinatorial library of fluorogenic peptide substrates (Harris, J. L., B. J. Backes, et al. Proc Natl Acad Sci U S A 2000, 97(14), 7754-9). Kinetic measurements are performed in a total reaction volume of 30 μl in 384-well microtiter plates. Cathepsin S, at a final concentration of 0.3-3 nM (active site), is incubated with the compounds at twelve varying concentrations in a buffer containing 100 mM NaAc (pH5.5), 1 mM EDTA, 100 mM NaCl, 0.01% Brij-35 for 20 minutes at room temperature. Control reactions in the absence of inhibitor are performed in replicates of 24. The reactions are initiated by adding the substrate, acetyl-histidine-proline-valine-lysine-amino carbamoyl coumarin, to a final concentration of 50 μM. The rate of substrate hydrolysis is measured by monitoring the increase in fluorescence at an excitation wavelength of 380 nm and an emission wavelength of 450 nm that results from cleavage of the aniline bond in the substrate by the enzyme. The apparent inhibition constants for the compounds are determined from the enzyme progress curves (Kuzmic, P., K. C. Elrod, et al. Anal Biochem 2000, 286(1), 45-50) and are then used to calculate the inhibition constants for competitive inhibitors.

[2] = biological target: T1, Cathepsin K (Homo sapiens, UniProt P43235); test: Cathepsin K inhibition assay, fluorogenic peptide substrate (selectivity for Cat. S over Cat. K); details: ratio of cathepsin K inhibition constant to cathepsin S inhibition constant
T1 sequence (P43235 115-329): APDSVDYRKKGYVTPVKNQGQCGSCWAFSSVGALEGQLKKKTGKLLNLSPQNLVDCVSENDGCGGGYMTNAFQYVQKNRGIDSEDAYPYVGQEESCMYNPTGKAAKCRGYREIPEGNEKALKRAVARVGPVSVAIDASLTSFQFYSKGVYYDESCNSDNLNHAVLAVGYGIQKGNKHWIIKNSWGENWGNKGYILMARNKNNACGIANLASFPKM
Procedure: as §1, with “cathepsin K, acetyl-lysine-histidine-proline-lysine-amino” for “cathepsin S, acetyl-histidine-proline-valine-lysine-amino”, “Cathepsin K,” for “Cathepsin S,”, “of 3.5” for “of 0.3-3”, “substrate, acetyl-lysine-histidine-proline-lysine-amino” for “substrate, acetyl-histidine-proline-valine-lysine-amino”, “of 40” for “of 50”
(§2) Selectivity for cathepsin S in the presence of cathepsin isozymes was determined by the ratio of the cathepsin isozyme inhibition constant of a compound of the present invention to the cathepsin S inhibition constant of the same compound. Preferred compounds of the present invention selective for cathepsin S have ratios of greater than 10. More preferred compounds of the present invention selective for cathepsin S have ratios of greater than 100. Most preferred compounds of the present invention selective for cathepsin S have ratios of greater than 1000.

[3] = biological target: Cathepsin L (Homo sapiens, UniProt P07711); test: Cathepsin L inhibition assay, fluorogenic peptide substrate (selectivity for Cat. S over Cat. L); details: ratio of cathepsin L inhibition constant to cathepsin S inhibition constant
Sequence of Cathepsin L (P07711 114-333, species assumed): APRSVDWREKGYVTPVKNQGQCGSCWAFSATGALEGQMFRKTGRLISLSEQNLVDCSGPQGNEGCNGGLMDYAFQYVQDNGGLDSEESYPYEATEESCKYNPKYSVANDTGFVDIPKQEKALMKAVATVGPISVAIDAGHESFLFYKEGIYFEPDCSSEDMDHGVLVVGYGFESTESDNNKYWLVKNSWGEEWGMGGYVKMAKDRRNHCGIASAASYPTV
Procedure: as §1, with “cathepsin L, acetyl-histidine-lysine-phenylalanine-lysine-amino” for “cathepsin S, acetyl-histidine-proline-valine-lysine-amino”, “Cathepsin L,” for “Cathepsin S,”, “of 0.1” for “of 0.3-3”, “substrate, acetyl-histidine-lysine-phenylalanine-lysine-amino” for “substrate, acetyl-histidine-proline-valine-lysine-amino”, “of 20” for “of 50”
as §2

[4] = biological target: Cathepsin B (Homo sapiens, UniProt P07858); test: Cathepsin B inhibition assay, fluorogenic peptide substrate (selectivity for Cat. S over Cat. B); details: ratio of cathepsin B inhibition constant to cathepsin S inhibition constant
Procedure: as §1, with “B,” for “S,”, “1.5” for “0.3-3”, “[…].” for “50 μM.”
as §2

Sequence of Cathepsin S (P25774 115-331, species assumed): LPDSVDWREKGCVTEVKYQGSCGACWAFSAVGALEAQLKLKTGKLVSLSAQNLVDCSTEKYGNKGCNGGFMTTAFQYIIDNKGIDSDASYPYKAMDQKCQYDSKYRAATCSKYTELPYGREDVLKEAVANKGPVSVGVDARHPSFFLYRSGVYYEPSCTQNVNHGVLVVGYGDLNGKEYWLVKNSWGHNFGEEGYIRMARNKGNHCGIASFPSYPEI

CC(C)(C)C[C@H](Cn1cnc2cc(Cl)c(Cl)cc21)OC(=O)N[C@@H](CO)CN1CCc2cc(F)ccc21 [Example 1, 1-(R)-(5,6-Dichloro-benzimidazol-1-ylmethyl)-3,3-dimethyl-butyl [2-(5-fluoro-2,3-dihydro-indol-1-yl)-1-(R)-hydroxymethyl-ethyl]carbamate]
pKi [1]: > 5.00 | Selectivity for Cat. S over Cat. K [2]: − (−, <10) | Selectivity for Cat. S over Cat. L [3]: + (+, >10) | Selectivity for Cat. S over Cat. B [4]: + (+, >10)
